Legend:
[1] = target: T1, hNPFF1-R (Homo sapiens, UniProt Q9GZQ6); conditions: inhibition of cAMP production induced by 2 μM forskolin; ref (46); read-out: Functional Activity hNPFF1-R EC50; cited from earlier work
T1 construct: expressed in transfected cells; host or cells: CHO cells

[2] = target: T2, hNPFF2-R (Homo sapiens, UniProt Q9Y5X5); parameters: method as in earlier work; conditions: inhibition of cAMP production induced by 2 μM forskolin; ref (46); read-out: Functional Activity hNPFF2-R EC50; cited from earlier work
T2 construct: expressed in transfected cells; host or cells: CHO cells (membranes)
T2 sequence (Q9Y5X5 whole entry): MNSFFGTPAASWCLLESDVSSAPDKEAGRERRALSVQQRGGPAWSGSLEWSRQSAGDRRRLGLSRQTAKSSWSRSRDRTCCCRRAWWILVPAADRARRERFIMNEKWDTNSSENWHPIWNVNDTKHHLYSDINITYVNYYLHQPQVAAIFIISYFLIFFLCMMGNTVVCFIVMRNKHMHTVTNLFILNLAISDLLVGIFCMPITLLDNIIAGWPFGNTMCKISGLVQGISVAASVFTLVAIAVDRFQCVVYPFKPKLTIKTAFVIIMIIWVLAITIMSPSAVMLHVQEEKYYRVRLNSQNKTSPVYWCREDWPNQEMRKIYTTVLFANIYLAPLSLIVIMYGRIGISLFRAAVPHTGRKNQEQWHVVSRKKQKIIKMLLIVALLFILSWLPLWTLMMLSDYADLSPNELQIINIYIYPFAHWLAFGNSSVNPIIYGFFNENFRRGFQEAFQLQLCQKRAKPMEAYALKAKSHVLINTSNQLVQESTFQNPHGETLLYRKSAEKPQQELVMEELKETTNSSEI

[3] = target: T3, MOR (Homo sapiens, UniProt P35372); assay: [35S]GTPγS functional assay (agonist mode) at MOR; assay type: biochemical; conditions: [35S]GTPγS MOR EC50 ± SEM
T3 sequence (P35372 whole entry): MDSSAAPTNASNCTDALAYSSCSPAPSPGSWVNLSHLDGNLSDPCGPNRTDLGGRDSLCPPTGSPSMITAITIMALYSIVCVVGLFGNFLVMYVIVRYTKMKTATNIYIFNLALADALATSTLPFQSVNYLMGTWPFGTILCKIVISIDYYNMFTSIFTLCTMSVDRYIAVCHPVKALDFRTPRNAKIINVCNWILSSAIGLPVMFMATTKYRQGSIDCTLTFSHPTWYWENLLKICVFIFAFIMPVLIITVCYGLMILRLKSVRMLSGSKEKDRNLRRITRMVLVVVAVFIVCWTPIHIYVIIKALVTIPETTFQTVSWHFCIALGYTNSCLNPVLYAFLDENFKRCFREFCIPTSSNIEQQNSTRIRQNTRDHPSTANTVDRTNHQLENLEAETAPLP

[4] = Metabolic stability in rat liver microsomes; assay type: in vitro ADME
Procedure: In vitro metabolism of 22b (1 µM) was studied using Sprague Dawley rat liver microsomes (RLM) in a bench-top shaker for 1 h at 37 ± 0.5 °C. An aliquot (2 μL) of the stock solution (250 µM) was spiked in 0.5 mL of pre-incubated metabolic reaction mixture [50 mM Tris buffer (pH 7.4), 0.5 mg protein/mL of RLM, 20 mM magnesium chloride, and 2 mM NADPH]. Verapamil was used as the positive control to ensure the activity of the liver microsomal enzymes, and a metabolic reaction mixture without NADPH was used as the negative control in the same incubation conditions. An aliquot (40 µL) of the reaction mixture was withdrawn at 0, 5, 10, 15, 30, 45, and 60 min and quenched with 200 µL of ice-cold methanol. Samples were vortex-mixed for 2 min, followed by filtration (Multiscreen, Merck Millipore, Ireland) under vacuum. The filtrate was injected onto a UPLC-MS/MS system.
The hepatic elimination rate constant (k) was calculated directly from the slope of the natural logarithm (percent drug remaining) of the concentration vs. the time profile. In vitro half-life (t1/2), intrinsic clearance (CLint), and hepatic clearance (CLint,h) can be calculated from the equations reported in Figure S3 of the Supporting Information, where [V] is the incubation volume in mL and [P] is the amount of microsomal protein in the incubation mixture.

[5] = system: C57BL/6J mice; assay: Locomotor testing (CLAMS); assay type: in vivo, mouse; conditions: 100 nmol i.c.v., 90 min
[6] = target: T4, DOR (Homo sapiens, UniProt P41143); assay: Radioligand competition binding at DOR; conditions: read-out: Receptor Binding, Ki ± SEM DOR
T4 sequence (P41143 whole entry): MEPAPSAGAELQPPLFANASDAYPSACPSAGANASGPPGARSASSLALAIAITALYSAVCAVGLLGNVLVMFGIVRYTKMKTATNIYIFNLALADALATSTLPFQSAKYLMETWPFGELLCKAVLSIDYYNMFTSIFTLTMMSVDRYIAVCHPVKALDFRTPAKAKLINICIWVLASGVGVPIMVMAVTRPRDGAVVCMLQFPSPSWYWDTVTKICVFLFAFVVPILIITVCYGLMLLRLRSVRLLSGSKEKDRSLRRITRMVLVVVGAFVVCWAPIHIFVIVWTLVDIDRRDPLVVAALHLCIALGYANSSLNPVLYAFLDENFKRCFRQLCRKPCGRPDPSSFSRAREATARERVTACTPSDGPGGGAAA

[7] = target: T2, hNPFF2-R; assay: Radioligand competition binding at NPFF2-R; conditions: [3H]EYF, transfected CHO cell membranes; read-out: Receptor Binding, Ki ± SEM NPFF2-R
[8] = target: T5, KOR (Homo sapiens, UniProt P41145); assay: [35S]GTPγS functional assay (agonist mode) at KOR; assay type: biochemical; conditions: [35S]GTPγS KOR EC50 ± SEM, agonist mode, standard U-69,593
T5 sequence (P41145 whole entry): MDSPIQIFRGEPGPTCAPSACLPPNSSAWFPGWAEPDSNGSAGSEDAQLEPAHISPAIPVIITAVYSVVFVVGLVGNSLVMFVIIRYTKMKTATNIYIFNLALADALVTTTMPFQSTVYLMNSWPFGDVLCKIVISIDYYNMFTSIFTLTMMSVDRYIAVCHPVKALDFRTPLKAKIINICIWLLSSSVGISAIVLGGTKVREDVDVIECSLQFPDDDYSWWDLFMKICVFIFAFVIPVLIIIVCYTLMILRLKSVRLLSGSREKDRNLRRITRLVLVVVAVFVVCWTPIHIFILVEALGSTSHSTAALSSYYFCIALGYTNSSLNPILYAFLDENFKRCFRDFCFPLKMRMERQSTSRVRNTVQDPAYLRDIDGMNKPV

[9] = system: C57BL/6J mice; assay: Respiration testing (CLAMS); assay type: in vivo, mouse; conditions: 90 min
[10] = system: C57BL/6J mice; assay: Anti-hyperalgesia assay (48 °C warm water tail withdrawal assay, NPFF-induced hyperalgesia); assay type: in vivo, mouse
[11] = target: T3, MOR; assay: Radioligand competition binding at MOR
[12] = system: C57BL/6J mice; assay: Antinociception assay (55 °C warm water tail withdrawal assay); assay type: in vivo, mouse
[13] = system: C57BL/6J mice; assay: Excreta assay (intestinal transit); conditions: 90 min
[14] = target: T4, DOR; assay: [35S]GTPγS functional assay (agonist mode) at DOR; assay type: biochemical; conditions: [35S]GTPγS DOR EC50 ± SEM, agonist mode, standard DPDPE
[15] = target: T1, hNPFF1-R; assay: Radioligand competition binding at NPFF1-R; conditions: read-out: Receptor Binding, Ki ± SEM NPFF1-R
[16] = In vivo pharmacokinetic study, intravenous; parameters: species or system Sprague Dawley rats; conditions: 5 mg/kg i.v., rat, mean (n = 6) ± SEM
Procedure: In vivo pharmacokinetic study. For the evaluation of the in vivo pharmacokinetic parameters of 22b, a pharmacokinetic study was performed in healthy male adult Sprague Dawley rats with in-dwelling jugular catheters weighing 225 ± 25 g. The animals were housed in single occupancy metabolic cages with mesh flooring and urine and feces receptacles. Six animals were dosed with 5 mg/kg intravenously, and the blood samples were collected at the following time points: pre-dose, 0.083, 0.17, 0.33, 0.50, 0.75, 1, 2, 4, 6, 8, and 10 h post-dose. All samples were stored at −80 °C until they were further analyzed. Collected plasma samples were analyzed using a validated UPLC-MS/MS method, and non-compartmental analysis of the plasma concentration data was performed using Phoenix® 6.4.
Bioanalytical method development and validation. A sensitive, accurate, and robust quantitative liquid chromatography tandem mass spectrometry (LC-MS/MS, Waters Corporation, Milford, MA, USA) method was developed and validated according to the FDA guidelines. Separation was achieved using a Waters Acquity I-Class liquid chromatography system equipped with a binary pump, a degasser, a temperature-controlled autosampler, and a column oven. The analyte was separated via gradient elution utilizing LC-MS grade water and methanol acidified with 0.02% trifluoroacetic acid (TFA, % v/v) through a 2.1 × 50 mm ACQUITY UPLC® CSH C18 column with 1.7 μm particle size (PN 186005296, SN 01463729915172). Mass detection was achieved via Waters Xevo TQS Micro triple quadrupole mass spectrometer in positive electrospray ionization (ESI^+) mode with the multiple reaction monitoring (MRM) function. The method was validated in rat plasma for the linearity range of 1–200 ng/mL. The gradient schematic and fragmentation monitoring parameters are reported in Tables S2 and S3 of the Supporting Information.

[17] = system: C57BL/6J mice; assay: Acute antinociceptive tolerance assay (55 °C warm water tail withdrawal); assay type: in vivo, mouse; conditions: i.c.v.
[18] = target: T5, KOR; assay: biochemical; assay type: binding
[19] = target: NPFF1-R; conditions: read-out: NPFF1-R Ki; Figure 1; ref [29]; cited from earlier work
[20] = male, Sprague Dawley, plasma, iv

T1 sequence (Q9GZQ6 whole entry): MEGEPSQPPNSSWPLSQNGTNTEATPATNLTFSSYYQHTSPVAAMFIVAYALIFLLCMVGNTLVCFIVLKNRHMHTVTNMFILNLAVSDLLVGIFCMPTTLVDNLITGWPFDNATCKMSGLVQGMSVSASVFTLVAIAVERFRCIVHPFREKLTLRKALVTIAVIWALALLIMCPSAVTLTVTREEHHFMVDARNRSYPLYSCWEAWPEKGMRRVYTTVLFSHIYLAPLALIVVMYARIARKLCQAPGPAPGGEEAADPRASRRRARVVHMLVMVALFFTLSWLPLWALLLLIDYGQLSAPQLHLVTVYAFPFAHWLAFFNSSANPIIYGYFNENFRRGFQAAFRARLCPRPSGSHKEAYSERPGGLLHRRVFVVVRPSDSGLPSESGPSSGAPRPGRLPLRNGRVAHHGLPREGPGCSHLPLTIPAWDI

For “1DMe: high-affinity peptidic NPFF receptor ligand (YLFQPQRF)”, the EC50 [1] is listed as 71 ± 14 nM and the EC50 [2] is listed as 2.7 ± 0.5 nM.

In the case of `N=C(N)Nc1ccc(C(=C2CCN(Cc3ccccc3)CC2)c2ccccc2)cc1` [Compound 22b, 1-(4-((1-Benzylpiperidin-4-ylidene)(phenyl)methyl)phenyl)guanidine], the EC50 [3] is reported as 576 ± 311 nM, the “compound remained unchanged after 1 h of incubation” value ([4]; 1 µM, RLM, with NADPH) is reported as 25.5% and the “stability in negative control reaction mixture” value ([4]; RLM without NADPH) is reported as “metabolism of the compound was also observed”. For the same compound, the half-life at 1 µM ([4]; Sprague Dawley, rat, liver microsomes, pH 7.4, 1 µM, RLM, read-out: in vitro half-life) was 0.517 ± 0.0133 h, the “intrinsic clearance (CLint)” value ([4]; pooled rat liver microsomes) was 0.045 ± 0.001 mL/min per milligram of microsomal protein and the “effect on ambulation (spontaneous locomotor activity)” value [5] was “not significantly greater than that of the vehicle”. For the same compound, the Ki [6] was 11.4 ± 4.3 nM, the Ki [7] was 272 ± 1 nM and the EC50 [8] was 2710 ± 398 nM. For the same compound, the “effect on respiration rate” value ([9]; 30 nmol i.c.v.) was “no marked reduction in respiration”, the “effect on respiration rate” value ([9]; 100 nmol i.c.v.) was “increased respiration rate” and the “prevention of NPFF-induced hyperalgesia (screening)” value ([10]; 30 nmol i.c.v. two hours before NPFF 30 nmol i.c.v.) was “more moderate, yet still statistically significant, effect”. The “prevention of NPFF-induced hyperalgesia after peripheral pretreatment” value ([10]; 10 mg/kg i.p. pretreatment, NPFF 30 nmol i.c.v.) was “significant antagonism”, the Ki [11] was 428 ± 33 nM and the “antinociceptive activity over time (screening)” value ([12]; 30 nmol i.c.v., 55 °C) was “induced the greatest tail withdrawal latencies”. The “antinociceptive response after pretreatment with DOR-selective antagonist naltrindole” value ([12]; 22b 30 nmol i.c.v., naltrindole 20 mg/kg i.p. 20 min before, 40 min) was “did not alter the antinociceptive response”, the “antinociceptive response after pretreatment with KOR-selective antagonist nor-BNI” value ([12]; 22b 30 nmol i.c.v., nor-BNI 10 mg/kg i.p. 24 h before, 40 min) was “did not alter the antinociceptive response” and the “antinociceptive activity after pretreatment with MOR-selective antagonist β-FNA” value ([12]; 22b 30 nmol i.c.v., β-FNA 5 mg/kg s.c. 24 h before, 40 min) was “almost completely abolished”. For the same compound, the ED50 ([12]; Mus musculus, ip, 10 min, i.p., 10 min after administration, 55 °C, read-out: antinociception ED50 (95% confidence interval)) was 3.61 mg/kg, the “antinociception ED50 (95% confidence interval)” value ([12]; i.c.v., 40 min after administration, 55 °C) was 6.88 (4.71–9.47) nmol and the “duration of antinociceptive effect” value ([12]; i.p. administration) was “no more than 50 min”. The “number of excreted fecal boli” value ([13]; 30 nmol i.c.v.) was 3.5 ± 0.7 boli, the “number of excreted fecal boli” value ([13]; 100 nmol i.c.v.) was 4.1 ± 0.6 boli and the EC50 [14] was 539 ± 93.2 nM. It also gave a Ki [15] of 929 ± 183 nM, an AUC/dose0_inf [16] of 3004.7 ± 108.1 ng·h/mL/mg and a C0 [16, 20] of 9150 ± 3740 ng/mL. It also gave a Vd [16, 20] of 2 ± 0.2 L, a clearance [16, 20] of 5 mL/min and a half-life [16, 20] of 4.1 ± 0.5 h. The k el ([16]; male, Sprague Dawley, plasma, iv, read-out: k (elimination rate constant) (converted)) was 5.56e-05 s⁻¹, the “antinociception ED50 (95% CI), second administration” value ([17]; given 8 h after a first dose (morphine 3 nmol, 22b 8.7 nmol), 55 °C) was 10.8 (5.89–21.1) nmol and the “rightward shift of antinociceptive dose response (acute tolerance)” value ([17]; second administration 8 h after first) was 1.6 fold. For the same compound, the Ki [18] was 270 ± 43 nM.

In the case of `N=C(N)NCCNC(=O)C1(Nc2ccccc2)CCN(Cc2ccccc2)CC1` [compound 2], the Ki [19] is given as 81 ± 17 nM.

— publication PMC12251305 (Molecules, 2025)
